Numbers after ± are expanded uncertainties.
Conditions: Liquid; for speed of sound: non intrusive technique with two piezoelectric transducers based on the time of flight

## [2H]C([2H])([2H])C(=O)C([2H])([2H])[2H] [(D6)-2-propanone]
288.2 K, 100 kPa
  speed of sound: 1110.6 ± 4.5 m/s
288.2 K, 5020 kPa
  speed of sound: 1140.7 ± 4.6 m/s
288.2 K, 10060 kPa
  speed of sound: 1168.2 ± 4.7 m/s
288.2 K, 20010 kPa
  speed of sound: 1218.6 ± 4.9 m/s
288.2 K, 30090 kPa
  speed of sound: 1264.4 ± 5.1 m/s
288.2 K, 40050 kPa
  speed of sound: 1302.9 ± 5.2 m/s
288.2 K, 49940 kPa
  speed of sound: 1345.4 ± 5.4 m/s
288.2 K, 60000 kPa
  speed of sound: 1382.2 ± 5.5 m/s
288.2 K, 70020 kPa
  speed of sound: 1417.2 ± 5.7 m/s
288.2 K, 80060 kPa
  speed of sound: 1450.1 ± 5.8 m/s
288.2 K, 90030 kPa
  speed of sound: 1481.9 ± 5.9 m/s
288.2 K, 100110 kPa
  speed of sound: 1512.5 ± 6.1 m/s
288.2 K, 110100 kPa
  speed of sound: 1540.4 ± 6.2 m/s
288.2 K, 120100 kPa
  speed of sound: 1568.3 ± 6.3 m/s
288.2 K, 130120 kPa
  speed of sound: 1595.5 ± 6.4 m/s
288.2 K, 140000 kPa
  speed of sound: 1620.6 ± 6.5 m/s
288.2 K, 150150 kPa
  speed of sound: 1640.3 ± 6.6 m/s
288.2 K, 160030 kPa
  speed of sound: 1664 ± 6.7 m/s
298.15 K, 100 kPa
  mass density: 868 ± 0.22 kg/m3
298.15 K, 5000 kPa
  mass density: 873.51 ± 0.24 kg/m3
298.15 K, 9920 kPa
  mass density: 878.81 ± 0.25 kg/m3
298.15 K, 14840 kPa
  mass density: 883.83 ± 0.27 kg/m3
298.15 K, 19760 kPa
  mass density: 888.58 ± 0.29 kg/m3
298.15 K, 24670 kPa
  mass density: 893.11 ± 0.31 kg/m3
298.15 K, 29590 kPa
  mass density: 897.46 ± 0.33 kg/m3
298.15 K, 34510 kPa
  mass density: 901.62 ± 0.35 kg/m3
298.15 K, 39430 kPa
  mass density: 905.63 ± 0.38 kg/m3
298.15 K, 44340 kPa
  mass density: 909.51 ± 0.4 kg/m3
298.15 K, 49260 kPa
  mass density: 913.26 ± 0.42 kg/m3
298.15 K, 54180 kPa
  mass density: 916.86 ± 0.44 kg/m3
298.15 K, 59100 kPa
  mass density: 920.33 ± 0.47 kg/m3
298.25 K, 100 kPa
  speed of sound: 1071.6 ± 4.3 m/s
298.25 K, 5080 kPa
  speed of sound: 1103.4 ± 4.4 m/s
298.25 K, 10170 kPa
  speed of sound: 1131.8 ± 4.5 m/s
298.25 K, 20270 kPa
  speed of sound: 1183.7 ± 4.8 m/s
298.25 K, 30000 kPa
  speed of sound: 1229.6 ± 4.9 m/s
298.25 K, 40010 kPa
  speed of sound: 1272.1 ± 5.1 m/s
298.25 K, 50020 kPa
  speed of sound: 1312 ± 5.3 m/s
298.25 K, 60450 kPa
  speed of sound: 1350.7 ± 5.4 m/s
298.25 K, 70020 kPa
  speed of sound: 1383.8 ± 5.6 m/s
298.25 K, 80010 kPa
  speed of sound: 1416.9 ± 5.7 m/s
298.25 K, 90200 kPa
  speed of sound: 1443.5 ± 5.8 m/s
298.25 K, 100040 kPa
  speed of sound: 1478.7 ± 5.9 m/s
298.25 K, 110070 kPa
  speed of sound: 1507.6 ± 6.1 m/s
298.25 K, 120040 kPa
  speed of sound: 1535.4 ± 6.2 m/s
298.25 K, 130020 kPa
  speed of sound: 1561.1 ± 6.3 m/s
298.25 K, 140020 kPa
  speed of sound: 1586.5 ± 6.4 m/s
298.25 K, 150120 kPa
  speed of sound: 1611.2 ± 6.5 m/s
298.25 K, 159970 kPa
  speed of sound: 1634.8 ± 6.6 m/s
303.16 K, 100 kPa
  mass density: 861.61 ± 0.22 kg/m3
303.16 K, 5000 kPa
  mass density: 867.3 ± 0.23 kg/m3
303.16 K, 9920 kPa
  mass density: 872.78 ± 0.25 kg/m3
303.16 K, 14840 kPa
  mass density: 877.94 ± 0.27 kg/m3
303.16 K, 19760 kPa
  mass density: 882.84 ± 0.29 kg/m3
303.16 K, 24670 kPa
  mass density: 887.5 ± 0.31 kg/m3
303.16 K, 29590 kPa
  mass density: 891.96 ± 0.33 kg/m3
303.16 K, 34510 kPa
  mass density: 896.23 ± 0.35 kg/m3
303.16 K, 39430 kPa
  mass density: 900.35 ± 0.38 kg/m3
303.16 K, 44340 kPa
  mass density: 904.3 ± 0.4 kg/m3
303.16 K, 49260 kPa
  mass density: 908.1 ± 0.42 kg/m3
303.16 K, 54180 kPa
  mass density: 911.79 ± 0.44 kg/m3
303.16 K, 59100 kPa
  mass density: 915.34 ± 0.47 kg/m3
308.2 K, 100 kPa
  mass density: 855.39 ± 0.22 kg/m3
308.2 K, 5000 kPa
  mass density: 861.42 ± 0.23 kg/m3
308.2 K, 9920 kPa
  mass density: 867.11 ± 0.25 kg/m3
308.2 K, 14840 kPa
  mass density: 872.49 ± 0.27 kg/m3
308.2 K, 19760 kPa
  mass density: 877.58 ± 0.29 kg/m3
308.2 K, 24670 kPa
  mass density: 882.42 ± 0.31 kg/m3
308.2 K, 29590 kPa
  mass density: 887.02 ± 0.33 kg/m3
308.2 K, 34510 kPa
  mass density: 891.38 ± 0.35 kg/m3
308.2 K, 39430 kPa
  mass density: 895.65 ± 0.38 kg/m3
308.2 K, 44340 kPa
  mass density: 899.72 ± 0.4 kg/m3
308.2 K, 49260 kPa
  mass density: 903.62 ± 0.42 kg/m3
308.2 K, 54180 kPa
  mass density: 907.33 ± 0.44 kg/m3
308.2 K, 59100 kPa
  mass density: 910.94 ± 0.47 kg/m3
308.22 K, 100 kPa
  speed of sound: 1033.3 ± 4.2 m/s
308.22 K, 5040 kPa
  speed of sound: 1063.2 ± 4.3 m/s
308.22 K, 10000 kPa
  speed of sound: 1093.5 ± 4.4 m/s
308.22 K, 20090 kPa
  speed of sound: 1147.9 ± 4.6 m/s
308.22 K, 29990 kPa
  speed of sound: 1196.3 ± 4.8 m/s
308.22 K, 40040 kPa
  speed of sound: 1240.8 ± 5 m/s
308.22 K, 50090 kPa
  speed of sound: 1281.7 ± 5.1 m/s
308.22 K, 60060 kPa
  speed of sound: 1319.5 ± 5.3 m/s
308.22 K, 70070 kPa
  speed of sound: 1355 ± 5.4 m/s
308.22 K, 80090 kPa
  speed of sound: 1388.6 ± 5.6 m/s
308.22 K, 89970 kPa
  speed of sound: 1420.3 ± 5.7 m/s
308.22 K, 100070 kPa
  speed of sound: 1450.8 ± 5.8 m/s
308.22 K, 110070 kPa
  speed of sound: 1479.7 ± 5.9 m/s
308.22 K, 120060 kPa
  speed of sound: 1507.5 ± 6.1 m/s
308.22 K, 130120 kPa
  speed of sound: 1534.3 ± 6.2 m/s
308.22 K, 140080 kPa
  speed of sound: 1559.4 ± 6.3 m/s
308.22 K, 150120 kPa
  speed of sound: 1584 ± 6.4 m/s
308.22 K, 160000 kPa
  speed of sound: 1607.2 ± 6.5 m/s
313.21 K, 100 kPa
  mass density: 848.68 ± 0.22 kg/m3
313.21 K, 5000 kPa
  mass density: 855 ± 0.23 kg/m3
313.21 K, 9920 kPa
  mass density: 860.92 ± 0.25 kg/m3
313.21 K, 14840 kPa
  mass density: 866.48 ± 0.27 kg/m3
313.21 K, 19760 kPa
  mass density: 871.75 ± 0.29 kg/m3
313.21 K, 24670 kPa
  mass density: 876.72 ± 0.31 kg/m3
313.21 K, 29590 kPa
  mass density: 881.49 ± 0.33 kg/m3
313.21 K, 34510 kPa
  mass density: 886.02 ± 0.35 kg/m3
313.21 K, 39430 kPa
  mass density: 890.35 ± 0.38 kg/m3
313.21 K, 44340 kPa
  mass density: 894.51 ± 0.4 kg/m3
313.21 K, 49260 kPa
  mass density: 898.52 ± 0.42 kg/m3
313.21 K, 54180 kPa
  mass density: 902.37 ± 0.44 kg/m3
